This is an account of results in US20240124454A1, “TRICYCLIC COMPOUND AND USE THEREOF” (NANJING ZAIMING PHARMACEUTICAL CO., LTD., priority 2020, published 2024).

Read-outs that look alike come from different tables or passages of the source.

This assay deals with MAT2A (Homo sapiens (Human), UniProt P31153). The assay is described as follows: MAT2A biochemical test (inorganic phosphate colorimetric, PiColorLock). Conditions: read-out: MAT2A inhibitory Activity IC50. From the text:
Test Example 1. Biochemical Test
The brief introduction of the test principle: L-methionine and ATP can be converted into SAM, inorganic phosphate, and inorganic diphosphate under the catalysis of MAT2A enzymes. The content of inorganic phosphate in the sample can be quantitatively determined by adding a developer such as ammonium molybdate or the like to the enzymatic reaction mixture, thereby reflecting the enzymatic activity of MAT2A.
Reference: The experiment referred to the method disclosed in patent WO2018045071.
Material: MAT2A screening kits were purchased from BPS bioscience (U.S.); 384-well plates were purchased from Corning Company (U.S.). • 1. MAT2A protein (Pharmaron Beijing Co., Ltd.); • 2. L-methionine (Sigma #M9625-5G) • 3. ATP (Sigma #A7699-1G) • 4. KCl (Sigma #60142-500ML-F) • 5. Tris (Sigma #T2663-1L) • 6. MgCl2 (Sigma #M1028) • 7. EDTA (Invitrogen #AM9260G) • 8. BSA (Sangon Biotech #A500023-0100) • 9. PiColorLock (abcam #ab270004)
Detection method: In the experimental group, the test compound was dissolved in DMSO, diluted to a final concentration of 10 μM using Echo, and diluted 3-fold. 80 nL of the dilution was transferred to a 384-well plate.
The experimental buffer (50 mM Tris, 50 mM KCl, 15 mM MgCl2, 100 μM EDTA, 0.005% BSA) was prepared. The MAT2A protein was diluted with the experimental buffer (at final concentration of […]). 40 μL of 2×MAT2A solution was added to the 384-well plate. The plate was centrifuged at 1000 rpm for 1 min and incubated at room temperature for 120 min.
L-methionine and ATP (the final concentration of L-methionine was […] and the final concentration of ATP was 400 μM) were diluted with the experimental buffer. 40 μL of 2×L-methionine and ATP solution was added to initiate the reaction. The plate was centrifuged at 1000 rpm for 1 min and incubated at room temperature for 90 min.
The PiColorLock™ reaction catalyst was mixed with the PiColorLock™ buffer at a ratio of 1:100 according to the instructions. 20 μL was added to each well, and the plate was shaken for 30 s. 8 μL stabilizing reagent was added, and the plate was shaken for 30 s. The signal values were measured after 30 min of incubation at room temperature.
A negative control group and a positive control group were respectively used as Bottom and Top. The negative control group was not added with MAT2A protein, and other operations were consistent with those of the experimental group. The positive control group was not added with the test compound, only added with DMSO in the same volume, and other operations were consistent with those of the experimental group.
The % Compound inhibition was calculated and fitted to give the IC50 of the compound.
% Compound inhibition=1-100%×(Signal−Bottom)/(Top−Bottom).
Signal referred to the signal value of the experimental group, Bottom referred to the average signal value of the negative control group, and Top referred to the average signal value of the positive control group.
Under the condition of this experiment, the inhibitory effect of the test compound on MAT2A can be expressed as the IC50 of the inhibition on the phosphate production level during the enzymatic reaction.

MAT2A, sequence (P31153 whole entry): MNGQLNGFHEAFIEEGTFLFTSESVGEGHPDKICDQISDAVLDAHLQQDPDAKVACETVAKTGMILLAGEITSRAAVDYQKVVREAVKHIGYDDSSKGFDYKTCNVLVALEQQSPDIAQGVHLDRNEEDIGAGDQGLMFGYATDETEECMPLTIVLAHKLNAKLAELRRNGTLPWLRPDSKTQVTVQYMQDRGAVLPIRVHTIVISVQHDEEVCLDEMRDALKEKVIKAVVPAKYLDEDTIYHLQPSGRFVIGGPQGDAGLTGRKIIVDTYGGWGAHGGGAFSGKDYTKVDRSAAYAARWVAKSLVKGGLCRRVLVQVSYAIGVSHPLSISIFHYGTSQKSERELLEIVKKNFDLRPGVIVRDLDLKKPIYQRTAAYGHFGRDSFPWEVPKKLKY

For orientation: IC50 means the midpoint of a concentration-inhibition curve. As to `Cc1cnccc1-n1c(=O)c2ncn(C)c2c2ccc(C(F)(F)F)nc21` [Compound 27, 1-methyl-5-(3-methylpyridin-4-yl)-7-(trifluoromethyl)-1,5-dihydro-4H-imidazo[4,5-c][1,8]naphthyridin-4-one], the IC50 was 500 to 1000 nM (class symbols) and 819 nM (numeric values).

As for `Cc1ccncc1-n1c(=O)c2ncn(C)c2c2ccc(C(F)(F)F)nc21` [Compound 28, 1-methyl-5-(4-methylpyridin-3-yl)-7-(trifluoromethyl)-1,5-dihydro-4H-imidazo[4,5-c][1,8]naphthyridin-4-one], the IC50 runs as follows: (class symbols) 100 to 500 nM; (numeric values) 165 nM. In the same order, the values of `Cc1ccccc1-n1c(=O)c2ncn(C)c2c2ccc(C(F)(F)F)nc21` [Compound 31, 1-methyl-5-(2-methylphenyl)-7-(trifluoromethyl)-1,5-dihydro-4H-imidazo[4,5-c][1,8]naphthyridin-4-one] are 100 to 500 nM and 159 nM. The like results for `Cn1cnc2c(=O)n(-c3ccc(F)cc3Cl)c3nc(C(F)(F)F)ccc3c21` [Compound 32, 5-(2-chloro-4-fluorophenyl)-1-methyl-7-(trifluoromethyl)-1,5-dihydro-4H-imidazo[4,5-c][1,8]naphthyridin-4-one] were, in that order, 100 to 500 nM and 119 nM. In the same order, the values of `COc1ccccc1-n1c(=O)c2ncn(C)c2c2ccc(C(F)(F)F)nc21` [Compound 33, 5-(2-methoxyphenyl)-1-methyl-7-(trifluoromethyl)-1,5-dihydro-4H-imidazo[4,5-c][1,8]naphthyridin-4-one] are < 100 nM and 67.6 nM. As to `CC(C)c1ccccc1-n1c(=O)c2ncn(C)c2c2ccc(C(F)(F)F)nc21` [Compound 34, 5-(2-isopropylphenyl)-1-methyl-7-(trifluoromethyl)-1,5-dihydro-4H-imidazo[4,5-c][1,8]naphthyridin-4-one], the IC50 runs as follows: (class symbols) < 100 nM; (numeric values) 73.1 nM. The like results for `O=c1c2ncn(CCO)c2c2ccc(C(F)(F)F)nc2n1-c1ccccc1Cl` [Compound 50, 5-(2-chlorophenyl)-1-(2-hydroxyethyl)-7-(trifluoromethyl)-1,5-dihydro-4H-imidazo[4,5-c][1,8]naphthyridin-4-one] were, in that order, 100 to 500 nM and 113 nM.

For the compound `O=c1c2ocnc2c2ccc(C(F)(F)F)nc2n1-c1ccccc1Cl` [Compound 51, 5-(2-chlorophenyl)-7-(trifluoromethyl)oxazolo[5,4-c][1,8]naphthyridin-4(5H)-one], the IC50 is 100 to 500 nM (class symbols) and 182 nM (numeric values). In the same order, the values of `Cn1cnc2c(=O)n(-c3cccc(C#N)c3)c3nc(C(F)(F)F)ccc3c21` [Compound 52, 3-(1-methyl-4-oxo-7-(trifluoromethyl)-1,4-dihydro-5H-imidazo[4,5-c][1,8]naphthyridin-5-yl)benzonitrile] are < 100 nM and 47.2 nM. In the same order, the values of `CN(C)CCn1cnc2c(=O)n(-c3ccccc3Cl)c3nc(C(F)(F)F)ccc3c21` [Compound 53, 5-(2-chlorophenyl)-1-(2-(dimethylamino)ethyl)-7-(trifluoromethyl)-1,5-dihydro-4H-imidazo[4,5-c][1,8]naphthyridin-4-one] are 100 to 500 nM and 314 nM. In the same order, the values of `CNCCn1cnc2c(=O)n(-c3ccccc3Cl)c3nc(C(F)(F)F)ccc3c21` [Compound 54, 5-(2-chlorophenyl)-1-(2-(methylamino)ethyl)-7-(trifluoromethyl)-1,5-dihydro-4H-imidazo[4,5-c][1,8]naphthyridin-4-one] are 500 to 1000 nM and 530 nM.

For the compound `NCCn1cnc2c(=O)n(-c3ccccc3Cl)c3nc(C(F)(F)F)ccc3c21` [Compound 55, 1-(2-aminoethyl)-5-(2-chlorophenyl)-7-(trifluoromethyl)-1,5-dihydro-4H-imidazo[4,5-c][1,8]naphthyridin-4-one], the IC50 was 100 to 500 nM (class symbols) and 296 nM (numeric values). The like results for `Cc1ccc2c3c(ncn3C)c(=O)n(-c3ccccc3Cl)c2n1` [Compound 56, 5-(2-chlorophenyl)-1,7-dimethyl-1,5-dihydro-4H-imidazo[4,5-c][1,8]naphthyridin-4-one] were, in that order, < 100 nM and 73.7 nM. Consider `COc1ccc(-n2c(=O)c3ncn(C)c3c3ccc(C(F)(F)F)nc32)cc1` [Compound 59, 5-(4-methoxyphenyl)-1-methyl-7-(trifluoromethyl)-1,5-dihydro-4H-imidazo[4,5-c][1,8]naphthyridin-4-one], for which the concentration for half-maximal inhibition (IC50) is, setting by setting: (class symbols) 100 to 500 nM; (numeric values) 252 nM.

On to `Cn1nccc1-n1c(=O)c2ncn(C)c2c2ccc(C(F)(F)F)nc21` [Compound 60, 1-methyl-5-(1-methyl-1H-pyrazol-5-yl)-7-(trifluoromethyl)-1,5-dihydro-4H-imidazo[4,5-c][1,8]naphthyridin-4(5H)-one], for which the 50% inhibitory concentration (IC50) (class symbols) is 100 to 500 nM.

In the case of `CCn1cnc2c(=O)n(-c3ccccc3Cl)c3nc(C(F)(F)F)ccc3c21` [Compound 61, 5-(2-chlorophenyl)-1-ethyl-7-(trifluoromethyl)-1,5-dihydro-4H-imidazo[4,5-c][1,8]naphthyridin-4-one], the concentration for half-maximal inhibition (IC50) (class symbols) fell in the range of 100 to 500 nM and the half-maximal inhibitory concentration (IC50) (numeric values) was 102 nM. Take `Cn1cnc2c(=O)n(-c3ccc(Cl)cc3Cl)c3nc(C(F)(F)F)ccc3c21` [Compound 62, 5-(2,4-dichlorophenyl)-1-methyl-7-(trifluoromethyl)-1,5-dihydro-4H-imidazo[4,5-c][1,8]naphthyridin-4-one]: the half-inhibitory concentration (IC50) by setting is: (class symbols) 100 to 500 nM; (numeric values) 251 nM. In the same order, the values of `Cn1cnc2c(=O)n(-c3cccc(F)c3)c3nc(C(F)(F)F)ccc3c21` [Compound 63, 5-(3-fluorophenyl)-1-methyl-7-(trifluoromethyl)-1,5-dihydro-4H-imidazo[4,5-c][1,8]naphthyridin-4-one] are < 100 nM and 48.1 nM. The like results for `Cn1cnc2c(=O)n(-c3cccc(F)c3Cl)c3cc(C(F)(F)F)ccc3c21` [Compound 66, 5-(2-chloro-3-fluorophenyl)-1-methyl-7-(trifluoromethyl)-1,5-dihydro-4H-imidazo[4,5-c]quinolin-4-one] were, in that order, < 100 nM and 47.3 nM.

As for `Cn1cnc2c(=O)n(-c3ccc(OC(F)F)cn3)c3nc(C(F)(F)F)ccc3c21` [Compound 69, 5-(5-(difluoromethoxy)pyridin-2-yl)-1-methyl-7-(trifluoromethyl)-1,5-dihydro-4H-imidazo[4,5-c][1,8]naphthyridin-4-one], the IC50 (class symbols) lay in the range of 100 to 500 nM and the IC50 (numeric values) turned out to be 282 nM. In the same order, the values of `Cn1cnc2c(=O)n(-c3ccc(OC(F)F)c(F)c3)c3nc(C(F)(F)F)ccc3c21` [Compound 71, 5-[4-(difluoromethoxy)-3-fluorophenyl]-1-methyl-7-(trifluoromethyl)-1,5-dihydro-4H-imidazo[4,5-c][1,8]naphthyridin-4-one] are 500 to 1000 nM and 978 nM. Take `Cc1ncccc1-n1c(=O)c2ncn(Cc3cnn(C)c3)c2c2ccc(C(F)(F)F)nc21` [Compound 74, 1-((1-methyl-1H-pyrazol-4-yl)methyl)-5-(2-methylpyridin-3-yl)-7-(trifluoromethyl)-1,5-dihydro-4H-imidazo[4,5-c][1,8]naphthyridin-4-one]: the 50% inhibitory concentration (IC50) is 100 to 500 nM (class symbols) and 140 nM (numeric values).

`Cc1ncccc1-n1c(=O)c2ncn(C)c2c2cnc(C(F)(F)F)nc21` [Compound 75, 1-methyl-5-(2-methylpyridin-3-yl)-7-(trifluoromethyl)-1,5-dihydro-4H-imidazo[4′,5′:4,5]pyrido[2,3-d]pyrimidin-4-one]: the IC50 runs as follows: (class symbols) < 100 nM; (numeric values) 71.7 nM. In the same order, the values of `Cn1cnc2c(=O)n(-c3cncnc3)c3nc(C(F)(F)F)ccc3c21` [Compound 76, 1-methyl-5-(pyrimidin-5-yl)-7-(trifluoromethyl)-1,5-dihydro-4H-imidazo[4,5-c][1,8]naphthyridin-4-one] are 100 to 500 nM and 201 nM.
